This note sets out measurements from article PMC9502271, “An Investigation of the Anti-Depressive Properties of Phenylpropanoids and Flavonoids in Hemerocallis citrina Baroni” (Molecules, 2022).

Like-named read-outs stand apart in the source and are kept apart here.

The subject of one assay is BV2 microglial cells. Nature of the assay: CCK8 cytotoxic activity in BV2 microglial cells. It counts as cell-based. Particulars: Mus musculus, BV-2, CCK8, LPS 1 μg/mL 24 h, compound test concentrations 3.125 to 100 μM, read-out: IC50 Cell Viability. The protocol:
(§1) BV2 microglia cells were purchased from iCell Bioscience Inc. (Shanghai, China). The cells were grown at 37 °C in a humid environment with 5% CO2. In DMEM with 10% fetal bovine serum and 1% penicillin-streptomycin solution, they were maintained alive. The following assays were carried out while the cells were in the exponential growth phase (subcultured 2–3 times).
The cytotoxic activity was assessed using the CCK8 test. In a 96-well plate, BV2 microglial cells (5 × 10^4 cells/well) were placed in each well and incubated for 12 h. After one hour with each substance, LPS (1 μg/mL) was applied to the BV2 microglia cells for an additional 24 h. The CCK8 solution was then incubated with BV2 cells for 1 h at 37 °C. The absorbance at 450 nm was measured using a plate reader (Molecular Devices, San Jose, CA, USA). The cells that had not been treated were assumed to have a 100% optical density.

Assay [1] deals with NO production induced by LPS in BV2 cells. Nature of the assay: Inhibition of NO production in LPS-induced BV2 microglial cells (Griess reagent). It is filed as cell-based. As to conditions: for IC50: compound test concentrations 3.125 to 100 μM, mean ± SD (n = 3), read-out: IC50 NO Inhibitory. The protocol: as §1
To determine how much NO is produced, the literature was consulted. Equal parts of the Griess reagent (1% sulfanilamide and 0.1% N-(1-naphthyl) ethylenediamine dihydrochloride in 2.5% phosphoric acid) were combined with the sample-treated cell culture medium for 5 min at room temperature and in the dark. It was determined that the absorbance was at 540 nm using a microplate reader. The trials were conducted simultaneously in triplicate.
(In general: Griess reagent forms a coloured azo dye with nitrite.)

The mark [2] stands for this setting: Mus musculus, BV-2, LPS-induced BV2 cells.

For the molecule `O=c1c(O[C@@H]2O[C@H](CO)[C@H](O)[C@H](O)[C@H]2O)c(-c2ccc(O)c(O)c2)oc2cc(O)cc(O)c12` [Compound 18, quercetin-3-O-β-D-galactpyranoside], the concentration for half-maximal inhibition (IC50) (in the assay with BV2 microglial cells; in assay [1] (setting [2])) was > 100 µM throughout.

Turning to `O=C(/C=C/c1ccc(O)c(O)c1)O[C@H]1[C@@H](O)C[C@](O)(C(=O)O)C[C@@H]1O` [Compound 13, crypto-chlorogenic acid], the IC50 (usually the concentration that gives 50% inhibition) in the assay with BV2 microglial cells is > 100 µM; in assay [1] (LPS-induced BV2 cells) it was 74.4 ± 6.53 µM; in assay [1] (setting [2]), < 100 µM.

Turning to `COc1cc(-c2oc3cc(O)cc(O)c3c(=O)c2O[C@@H]2O[C@H](CO)[C@H](O)[C@H](O)[C@H]2O)ccc1O` [Compound 25, isorhamnetin-3-O-β-D-galactopyranoside], the IC50 with BV2 microglial cells was > 100 µM. For the same molecule, the “inhibitory effects on NO production in comparison with the positive drug indomethacin” value (“inhibitory effects on NO production” for short) in assay [1] (LPS-induced BV2 cells) is listed as “stronger inhibitory effects”.

For the molecule `COc1ccc2c(c1)c(CC(=O)O)c(C)n2C(=O)c1ccc(Cl)cc1` [Indomethacin, indomethacin, reference compound], the results for the IC50 (with BV2 microglial cells; in assay [1] (setting [2])) were > 100 µM and 52.6 ± 4.58 µM, respectively.

Consider `C[C@@H]1O[C@@H](OC[C@H]2O[C@@H](Oc3c(-c4ccc(O)cc4)oc4cc(O)cc(O)c4c3=O)[C@H](O[C@@H]3O[C@@H](C)[C@H](O)[C@@H](O)[C@H]3O)[C@@H](O)[C@H]2O)[C@H](O)[C@H](O)[C@H]1O` [Compound 36, kaempferol-3-O-[α-L-rhamnopyranosyl-(1→6)]-[α-L-rhamnopyranosyl-(1→2)]-β-D-galactopyranoside], for which the concentration for half-maximal inhibition (IC50) (with BV2 microglial cells; in assay [1] (setting [2])) was > 100 µM in each case.

For `C[C@@H]1O[C@@H](OC[C@H]2O[C@@H](Oc3c(-c4ccc(O)c(O)c4)oc4cc(O)cc(O)c4c3=O)[C@H](O[C@@H]3O[C@@H](C)[C@H](O)[C@@H](O)[C@H]3O)[C@@H](O)[C@@H]2O)[C@H](O)[C@H](O)[C@H]1O` [Compound 22, quercetin-3-O-α-L-rhamnopyranosyl-(1→2)-[α-L-rhamnopyranosyl-(1→6)-β-D-glucopyranoside]], the IC50 (in the assay with BV2 microglial cells; in assay [1] (setting [2])) was > 100 µM in each case.

With `O=C(/C=C/c1ccc(O)c(O)c1)O[C@@H]1C[C@](O)(C(=O)O)C[C@@H](O)[C@H]1O` [Compound 14, chlorogenic acid], the half-inhibitory concentration (IC50) (in the assay with BV2 microglial cells; in assay [1] (setting [2])) was > 100 µM each time.

Turning to `O=c1c(O)c(-c2ccc(O)c(O)c2)oc2cc(O)cc(O)c12` [Compound 16, quercetin], the half-maximal inhibitory concentration (IC50) in the assay with BV2 microglial cells was > 100 µM. For the same molecule, in assay [1] (LPS-induced BV2 cells), the “inhibitory effects on NO production” value is on record as “stronger inhibitory effects”.

Consider `O=C(C=Cc1ccc(O)cc1)OC1CC2(O)CC(OC2=O)C1O` (stereo not drawn) [Compound 7, 3-O-(E)-p-coumaroylquinide], for which the results for the half-inhibitory concentration (IC50) (in the assay on BV2 microglial cells; in assay [1] (LPS-induced BV2 cells)) were > 100 µM and 94.6 ± 5.62 µM, respectively.

On to `O=c1c(O[C@@H]2O[C@H](CO)[C@@H](O)[C@H](O)[C@H]2O)c(-c2ccc(O)c(O)c2)oc2cc(O)cc(O)c12` [Compound 19, quercetin-3-O-β-D-glucopyranoside], for which the concentration for half-maximal inhibition (IC50) (with BV2 microglial cells; in assay [1] (setting [2])) was > 100 µM throughout.

Take `COC(=O)[C@@]1(O)C[C@H](OC(=O)/C=C\c2ccc(O)cc2)[C@H](O)[C@@H](O)C1` [Compound 6, 3-O-(Z)-p-coumaroylquinic acid methyl ester]: the 50% inhibitory concentration (IC50) (in the assay on BV2 microglial cells; in assay [1] (setting [2])) was > 100 µM each time.

Turning to `O=C(O)/C=C/c1ccc(O)cc1` [Compound 1, (E)-p-coumaric acid], the IC50 (in the assay on BV2 microglial cells; in assay [1] (setting [2])) was > 100 µM each time.

Regarding `C[C@@H]1O[C@@H](OC[C@H]2O[C@@H](Oc3c(-c4ccc(O)cc4)oc4cc(O)cc(O)c4c3=O)[C@H](O)[C@@H](O)[C@@H]2O)[C@H](O)[C@H](O)[C@H]1O` [Compound 35, kaempferol-3-O-α-L-rhamnopyranosyl-(1→6)-β-D-glucopyranoside], the IC50 (with BV2 microglial cells; in assay [1] (setting [2])) was > 100 µM throughout.

With `O=C(/C=C/c1ccc(O)cc1)O[C@H]1C[C@](O)(C(=O)O)C[C@H](O)[C@H]1O` [Compound 3, 3-O-(E)-p-coumaroylquinic acid], the half-inhibitory concentration (IC50) was > 100 µM in the assay on BV2 microglial cells, 78.5 ± 8.23 µM in assay [1] (LPS-induced BV2 cells) and < 100 µM in assay [1] (setting [2]).

Take `O=C(/C=C/c1ccc(O)c(O)c1)O[C@H]1C[C@@](O)(C(=O)O)C[C@H](O)[C@@H]1O` [Compound 12, neochlorogenic acid]: the IC50 (in the assay with BV2 microglial cells; in assay [1] (setting [2])) was > 100 µM each time.

On to `COC(=O)[C@@]1(O)C[C@H](OC(=O)/C=C/c2ccc(O)cc2)[C@H](O)[C@@H](O)C1` [Compound 5, 3-O-(E)-p-coumaroylquinic acid methyl ester], for which the IC50 with BV2 microglial cells was > 100 µM; in assay [1] (LPS-induced BV2 cells), 95.8 ± 7.18 µM; in assay [1] (setting [2]), < 100 µM.

Take `O=C(/C=C/c1ccc(O)cc1)O[C@H]1C[C@@](O)(C(=O)O)C[C@H](O)[C@@H]1O` [Compound 11, 5-O-(E)-p-coumaroylquinic acid]: the half-maximal inhibitory concentration (IC50) (with BV2 microglial cells; in assay [1] (setting [2])) was > 100 µM each time.

Consider `O=C(/C=C\c1ccc(O)cc1)O[C@H]1C[C@](O)(C(=O)O)C[C@H](O)[C@H]1O` [Compound 4, 3-O-(Z)-p-coumaroylquinic acid], for which the IC50 in the assay on BV2 microglial cells was > 100 µM; in assay [1] (LPS-induced BV2 cells) it was 70.4 ± 5.86 µM; in assay [1] (setting [2]), < 100 µM.

On to `O=C(/C=C/c1ccc(O)cc1)O[C@H]1[C@@H](O)C[C@](O)(C(=O)O)C[C@@H]1O` [Compound 9, 4-O-(E)-p-coumaroylquinic acid], for which the 50% inhibitory concentration (IC50) (with BV2 microglial cells; in assay [1] (setting [2])) was > 100 µM each time.

On to `O=c1c(O[C@@H]2O[C@H](CO)[C@@H](O)[C@H](O)[C@H]2O)c(-c2ccc(O)cc2)oc2cc(O)cc(O)c12` [Compound 33, kaempferol-3-O-β-D-glucopyranoside], for which the IC50 (in the assay on BV2 microglial cells; in assay [1] (setting [2])) was > 100 µM in each case.

Regarding `C[C@@H]1O[C@@H](OC[C@H]2O[C@@H](Oc3c(-c4ccc(O)c(O)c4)oc4cc(O)cc(O)c4c3=O)[C@H](O)[C@@H](O)[C@H]2O)[C@H](O)[C@H](O)[C@H]1O` [Compound 21, quercetin-3-O-α-L-rhamnopyranosyl-(1→6)-β-D-galactpyranoside], the IC50 (in the assay with BV2 microglial cells; in assay [1] (setting [2])) was > 100 µM throughout.

Turning to `C[C@@H]1O[C@@H](OC[C@H]2O[C@@H](Oc3c(-c4ccc(O)c(O)c4)oc4cc(O)cc(O)c4c3=O)[C@H](O)[C@@H](O)[C@@H]2O)[C@H](O)[C@H](O)[C@H]1O` [Compound 20, quercetin-3-O-rutinoside], the IC50 (in the assay with BV2 microglial cells; in assay [1] (setting [2])) was > 100 µM each time.

As to `COc1cc(-c2oc3cc(O)cc(O)c3c(=O)c2O[C@@H]2O[C@H](CO)[C@@H](O)[C@H](O)[C@H]2O)ccc1O` [Compound 26, isorhamnetin-3-O-β-D-glucopyranoside], the IC50 (with BV2 microglial cells; in assay [1] (setting [2])) was > 100 µM throughout.

As for `O=C(/C=C\c1ccc(O)cc1)O[C@H]1[C@@H](O)C[C@](O)(C(=O)O)C[C@@H]1O` [Compound 10, 4-O-(Z)-p-coumaroylquinic acid], the 50% inhibitory concentration (IC50) (in the assay with BV2 microglial cells; in assay [1] (setting [2])) was > 100 µM throughout.

As for `C[C@@H]1O[C@@H](OC[C@H]2O[C@@H](Oc3c(-c4ccc(O)c(O)c4)oc4cc(O)cc(O)c4c3=O)[C@H](O[C@@H]3O[C@@H](C)[C@H](O)[C@@H](O)[C@H]3O)[C@@H](O)[C@H]2O)[C@H](O)[C@H](O)[C@H]1O` [Compound 23, quercetin-3-O-α-L-rhamnopyranosyl-(1→2)-[α-L-rhamnopyranosyl-(1→6)-β-D-galactpyranoside]], the IC50 (in the assay with BV2 microglial cells; in assay [1] (setting [2])) was > 100 µM each time.

As for `COc1cc(-c2oc3cc(O)cc(O)c3c(=O)c2O[C@@H]2O[C@H](CO[C@@H]3O[C@@H](C)[C@H](O)[C@@H](O)[C@H]3O)[C@H](O)[C@H](O)[C@H]2O[C@@H]2O[C@@H](C)[C@H](O)[C@@H](O)[C@H]2O)ccc1O` [Compound 28, isorhamnetin-3-O-α-L-rhamnopyranosyl-(1→2)-[α-L-rhamnopyranosyl-(1→6)-β-D-galactopyranoside]], the figures for the IC50 (in the assay with BV2 microglial cells; in assay [1] (LPS-induced BV2 cells); in assay [1] (setting [2])) were > 100 µM, 90.7 ± 10.4 µM and < 100 µM, respectively.

As for `O=c1c(O)c(-c2ccc(O)cc2)oc2cc(O)cc(O)c12` [Compound 30, kaempferol], in the assay with BV2 microglial cells, the IC50 was > 100 µM. The “inhibitory effects on NO production” value in assay [1] (LPS-induced BV2 cells) was “stronger inhibitory effects”.

Turning to `C[C@@H]1O[C@@H](OC[C@H]2O[C@@H](Oc3c(-c4ccc(O)cc4)oc4cc(O)cc(O)c4c3=O)[C@H](O[C@@H]3O[C@@H](C)[C@H](O)[C@@H](O)[C@H]3O)[C@@H](O)[C@@H]2O)[C@H](O)[C@H](O)[C@H]1O` [Compound 37, kaempferol-3-O-[α-L-rhamnopyranosyl-(1→6)]-[α-L-rhamnopyranosyl-(1→2)]-β-D-glucopyranoside], the values for the 50% inhibitory concentration (IC50) (in the assay on BV2 microglial cells; in assay [1] (LPS-induced BV2 cells); in assay [1] (setting [2])) were > 100 µM, 96.1 ± 11.6 µM and < 100 µM, respectively.

With `COc1cc(-c2oc3cc(O)cc(O)c3c(=O)c2O)ccc1O` [Compound 24, isorhamnetin], the IC50 in the assay with BV2 microglial cells was > 100 µM. For the same molecule, the “inhibitory effects on NO production” value in assay [1] (LPS-induced BV2 cells) was “stronger inhibitory effects”.

As to `COc1cc(-c2oc3cc(O)cc(O)c3c(=O)c2O[C@@H]2O[C@H](CO[C@@H]3O[C@@H](C)[C@H](O)[C@@H](O)[C@H]3O)[C@@H](O)[C@H](O)[C@H]2O)ccc1O` [Compound 27], the IC50 (in the assay on BV2 microglial cells; in assay [1] (setting [2])) was > 100 µM each time.
